The values that follow are results of earlier work, collected in patent publication US20120263775A1, “PRODUCTION OF PESTICIDE GRANULATES IN A SPOUTED BED APPARATUS” (priority 2009, published 2012).

Molecules are shown by their SMILES. Values after ≈ are worked out from the molar mass of the structure shown.

Take `COC(=O)N(OC)c1ccccc1COc1ccn(-c2ccc(Cl)cc2)n1` [Pyraclostrobin, pyraclostrobin]: the solubility in water is 2 µg/mL (≈ 5.16 µM).
